# Reference: patent US12577214B2, “Polymorphs of bis(fluoroalkyl)-1,4-benzodiazepinone compounds and uses thereof” (Bristol-Myers Squibb Company, priority 2020, dated 2026)
# Read-outs that look alike come from different tables or passages of the source.
# Experiments:
# Format in all cases: physicochemical
# [1] = Solid state stability of N-2 free base form
# Description: Solid state stability was conducted only on N-2, at 5° C., 25° C., 40° C./75% RH (open and closed), and 50° C. for up to 4 weeks.
# [2] = Form stability on heating (PXRD); settings: heating to 270° C.
# Description: FIG. 1 depicts PXRD patterns of the N-2 form at room temperature (bottom), 165° C. (middle) and 270° C. (top).
# The crystal structure for Compound 1 was determined by single crystal X-ray diffraction studies on elongated prismatic crystals grown from THF/heptane. The intermolecular hydrogen-bonding in the N-2 structure is shown in FIGS. 12A-12B; the structure contains small voids of about 20 Å^3. The experimental PXRD pattern for N-2 matches the simulated pattern which confirms the single phase identity of N-2 crystallized in bulk (FIG. 13). […] (FIG. 1).
# [3] = Solubility of N-2 in water and solvents
# Description: N-2 has an aqueous solubility of <1 μg/mL in water.
# [4] = Form stability on slurrying in aqueous solutions (PXRD); settings: slurry at RT in FASIF and in HCl (pH=1)
# Text: FIG. 16 depicts PXRD patterns of: P1 form following slurrying thereof in FASIF (fasted state simulated intestinal fluid) (top); in HCl (pH=1) (middle); and of N-2 form (bottom). […] (FIG. 14). […] (FIG. 15).
Structure (SMILES),"Solid state stability (chemical and physical) ([1]; 5° C., 25° C., 40° C./75% RH (open and closed), and 50° C. for up to 4 weeks)",Stability when exposed to high intensity light (HIL)/ultraviolet (UV) light ([1]; HIL/UV light for 7 days),Physical form after heating [2],"solubility ([3]; PEG 400, organic solvent or mixture, read-out: solubility in PEG 400)","solubility ([3]; in water, read-out: aqueous solubility)",Form after slurrying in aqueous solutions [4]
Cc1cccc2c1NC(=O)[C@@H](NC(=O)[C@H](CCC(F)(F)F)[C@H](CCC(F)(F)F)C(N)=O)N=C2c1cccc(F)c1 [Compound N-2],chemically and physically stable,chemically and physically stable,No physical change in form,~38 mg/mL,< 0.001 mg/mL,
Cc1cccc2c1NC(=O)[C@@H](NC(=O)[C@H](CCC(F)(F)F)[C@H](CCC(F)(F)F)C(N)=O)N=C2c1cccc(F)c1 [Compound P1],,,,,,converts to N-2
